The series is described as follows: pKa values for the secondary alcohol OH group.

SMILES strings stand for the structures.

For the compound `OC[C@H]1O[C@H](O[C@H]2[C@H](O)[C@@H](O)C(O)O[C@@H]2CO)[C@H](O)[C@@H](O)[C@@H]1O` (mixture of isomers) [maltose], the pKa amounted to 11.9.

As to `OC[C@@H](O)[C@@H](O)[C@H](O)[C@@H](O)CO` [sorbitol], the pKa worked out at 13.6.

With `OC[C@H]1O[C@@H]2O[C@H]3[C@H](O)[C@@H](O)[C@@H](O[C@H]4[C@H](O)[C@@H](O)[C@@H](O[C@H]5[C@H](O)[C@@H](O)[C@@H](O[C@H]6[C@H](O)[C@@H](O)[C@@H](O[C@H]7[C@H](O)[C@@H](O)[C@@H](O[C@H]1[C@H](O)[C@H]2O)O[C@@H]7CO)O[C@@H]6CO)O[C@@H]5CO)O[C@@H]4CO)O[C@@H]3CO` [α-CD], the “pKa value for the secondary alcohol OH group” value worked out at 12.05.

The values are drawn from patent publication US20150136603A1, “WATER-SOLUBLE, UV-ABSORBING AND/OR FLOURESCENT COMPONENTS WITH VERY HIGH ISOELECTRIC POINTS” (TEXAS A & M UNIVERSITY SYSTEM, priority 2004, published 2015).
